Measurements reported in article PMC8260868, “Protocol for improving diffraction quality of leucyl-tRNA synthetase 1 with methylation and post-crystallization soaking and cooling in cryoprotectants” (STAR Protocols, 2021).

Assays:
Assay type in all cases: binding
[1] = molecular target: T1, LARS1 (leucyl-tRNA synthetase 1) (Homo sapiens, UniProt Q9P2J5); test: X-ray crystallography, co-crystal; settings: 2 mM leucine; bis-tris pH 6.5, 1.6 M ammonium sulfate; LARS1-Leu^syn, synthetic site
T1 construct: full length 1-1176, His-tagged in pQE-80L (BamHI/HindIII), E. coli Rosetta (DE3); tag removal not mentioned; one molecule in the asymmetric unit; lysines reductively methylated in LARS1-methyl (6KR7)

[2] = molecular target: T1, LARS1 (leucyl-tRNA synthetase 1); test: microscale thermophoresis (Monolith NT.[…], RED-tris-NTA labelled His-LARS1)
[3] = molecular target: T1, LARS1 (leucyl-tRNA synthetase 1); test: intrinsic-fluorescence DSF (Tycho NT.[…]); settings: 2, 5, 10, 20 mM leucine; Tris-HCl pH 7.5, 150 mM NaCl, 5 mM MgCl2, 2 mM DTT, 0.1% Tween-20; 1 mg/mL LARS1

T1 sequence (Q9P2J5 whole entry): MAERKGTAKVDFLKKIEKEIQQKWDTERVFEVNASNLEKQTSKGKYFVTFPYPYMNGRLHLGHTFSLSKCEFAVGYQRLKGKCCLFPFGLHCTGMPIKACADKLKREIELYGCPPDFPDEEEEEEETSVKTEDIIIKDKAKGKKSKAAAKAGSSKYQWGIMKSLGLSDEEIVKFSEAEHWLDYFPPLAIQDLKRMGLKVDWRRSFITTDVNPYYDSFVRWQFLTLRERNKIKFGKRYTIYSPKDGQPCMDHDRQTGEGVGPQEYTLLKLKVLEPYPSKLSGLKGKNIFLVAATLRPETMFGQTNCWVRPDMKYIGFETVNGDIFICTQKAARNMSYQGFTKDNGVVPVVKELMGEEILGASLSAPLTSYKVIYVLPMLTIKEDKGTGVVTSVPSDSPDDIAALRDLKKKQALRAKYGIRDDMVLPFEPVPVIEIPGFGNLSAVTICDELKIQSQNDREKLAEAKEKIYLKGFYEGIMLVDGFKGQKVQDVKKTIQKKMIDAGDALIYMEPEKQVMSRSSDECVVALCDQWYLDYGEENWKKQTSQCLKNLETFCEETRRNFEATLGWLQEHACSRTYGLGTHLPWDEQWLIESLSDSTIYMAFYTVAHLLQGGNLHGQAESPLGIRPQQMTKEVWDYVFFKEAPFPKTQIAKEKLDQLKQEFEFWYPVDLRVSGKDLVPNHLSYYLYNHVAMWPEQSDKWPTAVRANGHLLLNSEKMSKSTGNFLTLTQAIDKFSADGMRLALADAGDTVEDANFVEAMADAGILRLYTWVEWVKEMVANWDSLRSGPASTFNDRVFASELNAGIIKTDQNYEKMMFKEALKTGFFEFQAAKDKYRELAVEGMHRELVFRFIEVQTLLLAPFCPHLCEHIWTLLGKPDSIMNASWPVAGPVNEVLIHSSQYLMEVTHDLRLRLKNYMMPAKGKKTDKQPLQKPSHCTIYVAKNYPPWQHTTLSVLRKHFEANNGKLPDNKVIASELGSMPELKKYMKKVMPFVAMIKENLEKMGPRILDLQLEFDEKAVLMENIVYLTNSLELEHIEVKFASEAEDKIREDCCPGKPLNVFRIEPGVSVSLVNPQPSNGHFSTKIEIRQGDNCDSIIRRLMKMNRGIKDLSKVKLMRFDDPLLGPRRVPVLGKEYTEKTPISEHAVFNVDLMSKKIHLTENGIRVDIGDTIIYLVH

- Kd [2]: 119 ± 63.1 µM
Structure (SMILES): CC(C)C[C@H](N)C(=O)O [L-Leucine]
- X-ray crystallography, co-crystal [1]: prepare LARS1-Leu^syn crystals subsequently deposited in PDB with the code 6KQY
- Ti [3]: LARS1 was incubated with leucine and the inflection temperature (Ti) was measured
